# Values quoted from earlier work as cited in patent publication US9393184B2, “Oxychlorine oral rinse composition having enhanced oral-tissue compatibility for the destruction of malodorants, their putrefactive microbial sources and gum-disease pathogens and a method for the preparation thereof” (ProFresh Properties Inc., priority 2013, dated 2016).
smiles,measurement,value
O=C(O)O [carbonic acid],pKa,6.1
